Measured values as given in patent US10072122B2, “Carbonate polymer containing a functional group of disulfide five-membered ring in the side chain and application thereof” (BrightGene Bio-Medical Technology Co., Ltd, priority 2014, dated 2018).
Structures can show the parent of a compound that is named as a salt.

How the values were obtained:
[1] = blood circulation of targeting cross-linked vesicle loaded drug in mice; format: in vivo, Balb/C mice; conditions: i.v. 10 mg/kg DOX
Experimental: The vesicle was formed with different ratio of cRGD-PEG6k-P(CDC4.6k-co-TMC18.6k) and PEG5k-P(CDC4.9k-co-TMC19k). […] Mice were intravenously injected with targeting vesicle loaded drug cRGD20/CLPs, vesicle loaded drug CLPs, targeting decross-linked vesicle cRGD20/PEG-PTMC and DOX.HCl as control (the DOX was 10 mg/kg). 10 μL of blood was taken at different time points of 0, 0.25, 0.5, 1, 2, 4, 8, 12 and 24 h, and the weight of blood was calculated with the method of balance. The blood samples upon withdrawing were immediately dissolved in 100 μL 1% triton and 500 μL of extraction solution DMF (containing 1M HCl and 20 mM DTT). Taken the supernatant by centrifugation (20000 rpm, 20 min). The DOX level in the supernatant of each time was determined by fluorometry.

[2] = biodistribution in mice bearing human glioma cells; format: in vivo; conditions: Balb/C, mouse, tumor, iv, i.v. 10 mg/kg DOX, read-out: accumulation of DOX in tumor
Experimental: (§1) The mice were sacrificed at 4 h and the tumor and organs of heart, liver, spleen, lung and kidney were collected, wet weighed, then 500 μL 1% triton was added, homogenized and extracted by 900 μL DMF solution (containing 1 mM HCl and 20 mM DTT). Taken the supernatant by centrifugation (20000 rpm, 20 min). The DOX level at each time was determined by fluorescence measurement.

[3] = tested on: B16 melanoma tumor; assay: therapeutic efficacy of iRGD targeting cross-linked vesicles in mice bearing melanoma tumors; format: in vivo, C57BL/6 mice
Experimental: The tumor size was measured every day using calipers from 0 to 20 day.

[4] = tested on: U87MG human glioma cells; assay: therapeutic efficacy in mice bearing human glioma cells
Experimental: Aged 4 to 6 weeks old, weight 18 to 20 g Balb/C mice (Shanghai Institutes for Biological Sciences Laboratory Animal Center) were collected. They were evenly divided into groups after weighting. U87MG human glioma cells of 5×10^6 cells were generated by subcutaneous injection into the hind flank of the mice. Mice were intravenously injected with cRGD20/CLPs, CLPs, targeting decross-linked nanoparticle vesicle (cRGD20/PEG-PTMC), DOX.HCl and PBSat 0, 4, 8.12 day when the tumor volume reached 30 to 50 mm^3 about two weeks, where the DOX proportion was 10 mg/kg. The tumor size was measured every two days using calipers from 0 to 18 day. The tumor size was calculated by V=(L*W*H)/2 (L was length of tumor, W was width of tumor, H was thickness of tumor). Continue to observe the survival of mice until 45 day.

[5] = blood circulation of cross-linked nanoparticle loaded drug in mice; format: in vivo, C57BL/6 mice; conditions: i.v. 10 mg/kg DOX
Experimental: Mice were intravenously injected with nanoparticle loaded drug and free drug, and DOX was 10 mg/kg. 10 μL of blood was taken at different time points of 0, 0.25, 0.5, 1, 2, 4, 8, 12 and 24 h, and the weight of blood was calculated with the method of balance. The blood samples upon withdrawing were immediately dissolved in 100 μL 1% triton and 500 μL of extraction solution DMF (containing 1M HCl and 20 mM DTT). Taken the supernatant by centrifugation (20000 rpm, 20 min). The DOX level in the supernatant of each time was determined by fluorometry.

[6] = tested on: B16 melanoma tumor; assay: biodistribution in mice bearing melanoma tumors; format: in vivo, C57BL/6 mice; conditions: i.v. 10 mg/kg DOX
Experimental: as §1, with “Mice were intravenously injected with nanoparticle loaded drug and DOX (DOX was 10 mg/kg) when the tumor volume reached 100-200 mm^3 about two weeks. The mice” for “The mice”, “sacrificed at 6, 12 or 24 h and” for “sacrificed at 4 h and”

[7] = tested on: B16 melanoma tumor; assay: therapeutic efficacy in mice bearing melanoma tumors; format: in vivo, C57BL/6 mice; conditions: DOX 10 mg/kg

## COc1cccc2c1C(=O)c1c(O)c3c(c(O)c1C2=O)C[C@@](O)(C(=O)CO)C[C@@H]3O[C@H]1C[C@H](N)[C@H](O)[C@H](C)O1 [DOX.HCl, doxorubicin hydrochloride]
[1]; at 2 h
  DOX in blood: can not detection
[1]; mouse, whole blood, iv, Balb/C mice, read-out: half-lives of eliminate in mice (converted)
  half-life: 16.2 min
[2]
  tissue uptake at 4 h: 0.82 %ID/g
[3]; 10 mg/kg DOX.HCl at 0, 3, 6, 9, 12 day, 20 day
  tumor growth: can inhibit tumor growth
[3]; 10 mg/kg, at 8 day
  declining of body weight: 20%
[3]; 10 days
  survival rate: 0
[4]; 10 mg/kg DOX at 0, 4, 8, 12 day, 18 day
  tumor growth: can inhibited tumor growth
[4]; 10 mg/kg, at 12 day
  declining of body weight: 21%
[4]; 13 days
  survival rate: 0

## COc1cccc2c1C(=O)c1c(O)c3c(c(O)c1C2=O)C[C@@](O)(C(=O)CO)C[C@@H]3O[C@H]1C[C@H](N)[C@H](O)[C@H](C)O1 [DOX, Doxorubicin]
[5]; C57BL/6 mice
  half-lives of eliminate in mice: 0.21 h
[5]; at 2 h
  DOX in blood: can not detection
[6]; 6 h
  accumulation in tumor: 1.05 ID %/g
[6]; 12 h
  accumulation in tumor: 0.52 ID %/g
[6]; 24 h
  accumulation in tumor: 0.29 ID %/g
[7]
  tumor growth: can inhibited tumor growth
[7]; 10 days
  survival rate: 0
[7]; at 7 day
  body weight reduced: 23%
